Laboratory results: ChEMBL document CHEMBL1201862, “PubChem BioAssay data set” (2004)
Calls of active or inactive are those of the source.

How the values were obtained:
[1] = NIH-3T3 fibroblast cytotoxicity, dose response, cytotoxicity control, cell-based, fluorescence, Alamar Blue, secondary assay (AID 2327); type: functional;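 note: NIH-3T3 mouse fibroblasts cultured with fluconazole at 8 µg/mL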
[2] = C. albicans growth with fluconazole, confirmation, fluorescence, retest (AID 2467); type: functional, cell-based
[3] = growth suppression of PTEN-null colon cells, dose response, cell-based, HCT116 PTEN knockout (AID 1047); type: functional;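 note: HCT116 colon tumor cells with PTEN knocked out; cells exposed to compound for 60 hours before readout; potency for loss of cell viability measured by luminescence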
[4] = growth suppression of beta-catenin-knockout colon cells, dose response, cell-based, HCT116, human colon tumor (AID 1045); type: functional;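 note: HCT116 colon tumor cells with beta catenin knocked out; cells exposed to compound for 60 hours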
[5] = Shn3 3'UTR reporter inhibitors, dose response, cell-based, Clone20 osteoblasts, firefly luciferase, cherry-picked (AID 624132); type: functional;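 note: firefly luciferase luminescence from reporter carrying the Shn3 3'UTR in osteoblasts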
[6] = HepG2 cell cytotoxicity, dose response, cytotoxicity control for Shn3 inhibitor project, CellTiter-Glo, cherry-picked (AID 624134); type: functional, cell-based
[7] = control 3'UTR Renilla luciferase suppression, dose response, counter-screen for Shn3 inhibitor project, cell-based, Clone20-Shn3RL, cherry-picked (AID 624133); type: functional
[8] = inhibitors of firefly luciferase expression or activity, dose response, H4 neuroglioma cells, luminescence (AID 1990); type: functional, cell-based
[9] = Luminescence Cell-Based Dose Response HTS to Identify Inhibitors of 5'UTR Stem-Loop Driven Prion Protein mRNA Translation in H4 Neuroglioblastoma Cells. [Related pubchem assays: 1827 (Project Summary), 1813 (Primary HTS)]; type: functional
[10] = inhibitors of SNCA 5'UTR-driven reporter translation, confirmation, H4 neuroglioma cells, luminescence (AID 1988); type: functional, cell-based
[11] = biological target: T1, Polyadenylate-binding protein 1 (Homo sapiens, UniProt P11940); assay: PABP1 MLLE–PAM2 interaction inhibitors, dose response, miRNA deadenylation inhibitor project, biochemical, fluorescence polarization, Cy5-PAM2 peptide, secondary (AID 602260); type: functional; conditions: read-out: IC50_Mean
T1 sequence (P11940 whole entry): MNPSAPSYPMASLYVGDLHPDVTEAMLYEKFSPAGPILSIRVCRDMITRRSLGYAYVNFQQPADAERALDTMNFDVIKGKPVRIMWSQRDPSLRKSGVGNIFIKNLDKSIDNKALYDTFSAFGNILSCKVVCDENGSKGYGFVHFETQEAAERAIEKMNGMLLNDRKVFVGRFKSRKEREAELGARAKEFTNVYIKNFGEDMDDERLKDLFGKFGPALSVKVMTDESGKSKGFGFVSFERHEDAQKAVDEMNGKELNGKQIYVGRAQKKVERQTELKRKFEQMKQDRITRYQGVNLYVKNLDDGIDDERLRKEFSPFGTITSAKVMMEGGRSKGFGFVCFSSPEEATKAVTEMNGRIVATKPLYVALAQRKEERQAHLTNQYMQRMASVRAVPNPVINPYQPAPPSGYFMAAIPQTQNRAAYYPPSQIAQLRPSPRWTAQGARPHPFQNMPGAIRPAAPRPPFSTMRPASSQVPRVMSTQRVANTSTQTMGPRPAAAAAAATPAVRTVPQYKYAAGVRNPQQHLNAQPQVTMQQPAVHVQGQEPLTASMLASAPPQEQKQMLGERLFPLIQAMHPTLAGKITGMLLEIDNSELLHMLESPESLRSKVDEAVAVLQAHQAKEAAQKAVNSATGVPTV

[12] = biological target: T1, Polyadenylate-binding protein 1; assay: PABP1 MLLE–PAM2 binding inhibitor potency, dose response, biochemical, fluorescence polarization, FITC-PAM2 peptide (AID 602259); type: functional; conditions: read-out: IC50_Mean
[13] = test system: Streptococcus sp. 'group A'; assay: growth inhibition of control SK(-) GAS strain, dose response, counter-screen for streptokinase expression inhibitor project, luminescence, kanamycin, BacTiterGlo, confirmation (AID 1900); type: functional, organism-based
Streptokinase A = biological target: T2, Streptokinase A (Streptococcus pyogenes serotype M1, UniProt P10520); assay: S. pyogenes streptokinase expression inhibitors, potency, dose response, plasminogen activation absorbance, OD405 (AID 1914); type: functional, Streptococcus pyogenes M1 GAS;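 note: secreted streptokinase activity via plasminogen activation per viability signal from cell pellet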
T2 sequence (P10520 whole entry): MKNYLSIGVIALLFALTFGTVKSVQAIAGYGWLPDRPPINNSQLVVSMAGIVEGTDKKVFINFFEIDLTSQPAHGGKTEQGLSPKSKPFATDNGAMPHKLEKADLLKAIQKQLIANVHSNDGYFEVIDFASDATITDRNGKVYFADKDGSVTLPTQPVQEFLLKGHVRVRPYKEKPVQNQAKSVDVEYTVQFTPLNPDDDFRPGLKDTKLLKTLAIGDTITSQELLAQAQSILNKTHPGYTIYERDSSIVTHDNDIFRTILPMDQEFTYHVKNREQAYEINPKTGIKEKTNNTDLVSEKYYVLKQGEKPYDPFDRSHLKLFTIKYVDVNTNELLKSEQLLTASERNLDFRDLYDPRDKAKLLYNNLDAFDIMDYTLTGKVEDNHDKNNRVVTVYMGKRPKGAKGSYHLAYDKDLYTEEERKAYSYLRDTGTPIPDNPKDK

Streptococcus = assay: Group A Streptococcus viability loss, dose response, counter-screen for streptokinase expression inhibitor project, luminescence, BacTiterGlo (AID 1915); type: functional, organism-based;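 note: potency for reduction of bacterial viability or growth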
Cytochrome P450 3A4 = Cytochrome P450 3A4 (Homo sapiens, UniProt P08684);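 note: CYP3A4 tested as one member of a cytochrome P450 panel screen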
Cytochrome P450 3A4, sequence (P08684 whole entry): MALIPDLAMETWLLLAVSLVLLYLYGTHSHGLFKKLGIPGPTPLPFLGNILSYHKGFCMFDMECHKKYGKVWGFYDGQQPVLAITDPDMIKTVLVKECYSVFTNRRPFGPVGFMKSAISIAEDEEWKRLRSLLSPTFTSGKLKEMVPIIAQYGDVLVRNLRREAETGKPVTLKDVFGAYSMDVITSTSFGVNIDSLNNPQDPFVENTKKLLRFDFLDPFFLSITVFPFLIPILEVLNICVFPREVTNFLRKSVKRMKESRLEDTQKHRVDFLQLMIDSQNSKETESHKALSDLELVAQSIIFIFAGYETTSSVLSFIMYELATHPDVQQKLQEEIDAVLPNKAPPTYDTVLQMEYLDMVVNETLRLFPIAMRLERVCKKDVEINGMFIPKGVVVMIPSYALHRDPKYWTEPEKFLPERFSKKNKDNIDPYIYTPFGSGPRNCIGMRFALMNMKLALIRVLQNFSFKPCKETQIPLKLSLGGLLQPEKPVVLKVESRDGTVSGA

Paired box protein Pax-8 = Paired box protein Pax-8 (Homo sapiens, UniProt Q06710); assay: inhibitors of PAX8-driven TPO luciferase reporter, dose response, RMG-I cells, cherry-pick (AID 687027); type: functional, cell-based;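 note: luciferase reporter driven by Pax8 target thyroperoxidase promoter measured by SteadyGlo luminescence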
Paired box protein Pax-8, sequence (Q06710 whole entry, the tested form may be a part): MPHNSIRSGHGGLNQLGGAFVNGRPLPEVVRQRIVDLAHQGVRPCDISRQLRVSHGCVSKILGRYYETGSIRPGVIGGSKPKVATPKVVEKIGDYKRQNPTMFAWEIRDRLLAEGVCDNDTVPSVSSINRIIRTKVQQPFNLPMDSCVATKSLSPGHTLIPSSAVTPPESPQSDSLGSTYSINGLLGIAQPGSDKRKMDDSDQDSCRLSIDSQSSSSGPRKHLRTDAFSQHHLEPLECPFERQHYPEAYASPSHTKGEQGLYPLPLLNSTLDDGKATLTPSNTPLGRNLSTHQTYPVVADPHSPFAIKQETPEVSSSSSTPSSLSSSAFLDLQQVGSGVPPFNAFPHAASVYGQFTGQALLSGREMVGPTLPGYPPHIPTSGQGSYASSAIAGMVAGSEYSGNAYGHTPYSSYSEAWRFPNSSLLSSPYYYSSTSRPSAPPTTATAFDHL

[14] = biological target: T3, RNA-binding protein pos-1 (Caenorhabditis elegans, UniProt G5EF15); assay: inhibitors of POS-1/mex-3 RNA binding, dose response, biochemical, fluorescence polarization (AID 1964);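 note: purified POS-1 fused to maltose binding protein made in E. coli; potency of compounds blocking POS-1 binding to fluorescent RNA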
T3 sequence (G5EF15 whole entry): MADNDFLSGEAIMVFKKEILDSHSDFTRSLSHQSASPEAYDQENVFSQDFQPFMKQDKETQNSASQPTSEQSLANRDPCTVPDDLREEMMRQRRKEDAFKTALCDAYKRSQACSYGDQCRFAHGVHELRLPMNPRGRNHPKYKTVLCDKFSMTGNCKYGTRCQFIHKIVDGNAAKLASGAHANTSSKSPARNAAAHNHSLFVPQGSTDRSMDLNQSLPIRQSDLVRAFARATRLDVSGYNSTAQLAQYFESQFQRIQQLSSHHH

[15] = biological target: T4, Zinc finger protein mex-5 (Caenorhabditis elegans, UniProt Q9XUB2); assay: MEX-5/TCR-2 RNA interaction inhibitors, dose response, biochemical, C. elegans, fluorescence polarization (AID 1960)
T4 sequence (Q9XUB2 whole entry): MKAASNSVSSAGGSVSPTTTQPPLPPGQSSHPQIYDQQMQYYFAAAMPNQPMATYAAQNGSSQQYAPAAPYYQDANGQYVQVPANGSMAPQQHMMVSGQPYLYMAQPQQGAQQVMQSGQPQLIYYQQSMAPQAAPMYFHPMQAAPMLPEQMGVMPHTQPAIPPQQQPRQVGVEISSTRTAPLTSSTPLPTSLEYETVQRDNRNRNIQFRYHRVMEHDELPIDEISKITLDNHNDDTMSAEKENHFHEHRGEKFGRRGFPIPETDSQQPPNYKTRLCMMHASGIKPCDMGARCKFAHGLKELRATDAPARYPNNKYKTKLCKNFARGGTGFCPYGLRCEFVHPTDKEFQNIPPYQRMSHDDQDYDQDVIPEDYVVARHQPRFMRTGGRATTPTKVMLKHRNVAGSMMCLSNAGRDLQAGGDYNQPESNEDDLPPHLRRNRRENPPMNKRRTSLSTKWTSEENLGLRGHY

[16] = Luminescence Cell-Based Dose Retest to Confirm Inhibitors of Cancer Stem Cells. [Related pubchem assays (depositor defined):AID2717, AID2721]; type: functional; conditions: Homo sapiens
INS1 = assay: beta cell apoptosis inhibitors, cytokine rescue, dose response, luminescence, retest (AID 449756); type: functional, cell-based; conditions: Rattus norvegicus;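 note: cell death triggered by IL-1 beta plus TNF-alpha plus IFN-gamma mixture; protective hits raise ATP signal compared with cytokine alone wells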
cells = type: functional

O=C(Nc1nnc(-c2cccs2)o1)c1cccc(F)c1
EC50 [1]: > 160 µM (inactive)
EC50 [2]: 1.25 µM (active)
EC50 [3]: 10.5 µM (active)
EC50 [4]: 8.96 µM (active)

Cc1nn(-c2ccccc2)c(C)c1/C=N/NC(=O)CSc1nc2ccccc2c(=O)n1-c1ccc(Br)cc1
EC50 [3]: 7.38 µM (active)
EC50 [4]: 7.27 µM (active)

COc1ccccc1CNc1nc(NCc2ccccc2SC)c2sccc2n1
AC50 [5]: 4.48 µM (active)
AC50 [6]: 21.1 µM (active)
AC50 [7]: 5.2 µM (active)

Cc1c(Cc2ccccc2)sc(NC(=O)/C=C/c2cccc3ccccc23)c1C(N)=O
EC50 [8]: 13.3 µM (inconclusive)
EC50 [9]: 10.9 µM (active)
EC50 [10]: 5.84 µM (active)

Cn1c(COc2ccc(Br)cc2)nnc1SC1CCc2ccccc2C1=O (stereo not given)
AC50 [5]: 35.2 µM (active)
AC50 [6]: 58.9 µM (active)
AC50 [7]: 12.5 µM (active)

O=C(NC(=S)Nc1ccc(S(=O)(=O)N2CCCC2)cc1)c1cccs1
IC50 [11]: > 66 µM (inactive)
IC50 [12]: > 66 µM (inactive)

COc1ccc2cc3c(N)nn(C(=O)C4CCC(C(C)(C)C)CC4)c3nc2c1 (stereo not given)
EC50 [8]: 51.1 µM (active)
EC50 [13]: 2.15 µM (active)
EC50 [9]: 9.82 µM (active)
EC50 [10]: 12.3 µM (active)
EC50 (Streptokinase A): > 150 µM (not active)
EC50 (Streptococcus): 4.71 µM (active)

Cc1cccc(NC(=S)NC(=O)c2cccs2)n1
IC50 [11]: > 66 µM (inactive)
IC50 [12]: > 66 µM (inactive)
AC50 (Cytochrome P450 3A4): 28.2 µM (inconclusive)

O=C(Nc1nnc(COc2ccc(F)cc2)s1)c1ccco1
EC50 [1]: > 160 µM (inactive)
EC50 [2]: 3.15 µM (active)

Cc1cc(O)c(/C=N/Nc2ccc(Cl)cc2)c(=O)o1
EC50 [1]: 29.8 µM (active)
EC50 [2]: 0.273 µM (active)

COc1cccc(/N=c2\oc3c(C)ncc(CO)c3cc2C(=O)Nc2ccccc2OC)c1
EC50 [8]: > 120 µM (not active)
EC50 [9]: > 120 µM (not active)
EC50 [10]: > 120 µM (not active)

Cn1c(C(=O)NC2CCCCCC2)cc2c(=O)n(C)c3ccccc3c21
EC50 [3]: 24.4 µM (active)
EC50 [4]: 21.1 µM (active)

Cc1nn(Cc2ccc(Cl)cc2)c(C)c1NC(=O)c1cc(C(C)C)on1
AC50 [5]: 6.2 µM (active)
AC50 [6]: 67 µM (active)
AC50 [7]: 9.1 µM (active)

COc1ccc(C)cc1N(C(=O)c1ccccc1F)c1nc2ccccc2s1
EC50 [8]: > 120 µM (not active)
EC50 [9]: > 120 µM (not active)
EC50 [10]: > 120 µM (not active)

COC(=O)C1=C(c2ccc(F)cc2OCc2ccccc2)C[C@@H]2CC[C@H]1N2C(=O)NCc1ccc(C(F)(F)F)cc1
AC50 [5]: 9.14 µM (active)
AC50 [6]: > 70 µM (inactive)
AC50 [7]: 7.19 µM (active)
AC50 (Paired box protein Pax-8): 10.9 µM (active)

CCc1ccc(Oc2coc3cc(OCC(=O)Nc4cc(C)ccc4C)ccc3c2=O)cc1
EC50 [8]: 18.5 µM (active)
EC50 [9]: 14.8 µM (active)
EC50 [10]: 9.97 µM (active)

CCOC(=O)C1(Cc2cccc(OC)c2)CCN(C/C=C/c2ccc(OC)cc2)CC1
AC50 [5]: 4.75 µM (active)
AC50 [6]: 51.6 µM (active)
AC50 [7]: 5.59 µM (active)

O=C(O)c1cccc(NC(=S)NC(=O)c2ccncc2)c1
IC50 [11]: > 66 µM (inactive)
IC50 [12]: > 66 µM (inactive)

COc1cc(C(CC(=O)N2CCCC2)c2c(OC)cc(OC)c3ccc(=O)oc23)cc(OC)c1OC (stereo not given)
EC50 [14]: 8.14 µM (inconclusive)
EC50 [15]: 16.2 µM (active)
IC50 [11]: > 66 µM (inactive)
IC50 [12]: 60.3 µM (inactive)

Cc1ccc(Cl)cc1NC(=O)c1ccccc1OCC(=O)Nc1ccc(Cl)cc1
EC50 [3]: 8.82 µM (active)
EC50 [4]: 10.9 µM (active)
AC50 [16]: 10.6 µM (inconclusive)

Cc1oc(-c2ccc(Cl)cc2)nc1CN1CCCC(C(=O)N2CCN(C(=O)c3ccco3)CC2)C1 (stereo not given)
EC50 [3]: 26 µM (active)
EC50 [4]: 17.3 µM (active)

CCCNC(=O)c1ccc2c(O)c(O)c(-c3ccc(Cl)c([N+](=O)[O-])c3)nc2c1
EC50 [1]: > 150 µM (inactive)
EC50 [2]: 2.18 µM (active)
AC50 (INS1): 5.06 µM (active)

C=CCNC(=S)NS(=O)(=O)c1cccs1
IC50 [11]: > 66 µM (inactive)
IC50 [12]: > 66 µM (inactive)

N#CCSc1nnc(CNc2ccc(F)cc2)o1
IC50 [11]: > 66 µM (inactive)
IC50 [12]: > 66 µM (inactive)

S=C(NCCCCN(Cc1ccc(Cl)cc1)c1ccc(Br)cn1)NCCCc1cnc[nH]1
AC50 [5]: 7.24 µM (active)
AC50 [6]: 19.5 µM (active)
AC50 [7]: 39.3 µM (active)

C=CCNc1nc(N)c([N+](=O)[O-])c(N2CCCCCC2)n1
EC50 [8]: > 120 µM (not active)
EC50 [9]: > 120 µM (not active)
EC50 [10]: 26.7 µM (active)

CC(C)C1=C2CCCCC2NC(=O)N1 (stereo not given)
IC50 [11]: > 66 µM (inactive)
IC50 [12]: > 66 µM (inactive)

O=[N+]([O-])c1cccc(C(=S)N2CCN(c3ccc(F)cc3)CC2)c1
IC50 [11]: > 66 µM (inactive)
IC50 [12]: > 66 µM (inactive)

CCCOc1nc2c(c(=O)n(C)c(=O)n2C)n1Cc1cccc2ccccc12
EC50 [3]: 49 µM (active)
EC50 [4]: 27.1 µM (active)
AC50 (INS1): 6.39 µM (active)

O=C(N/N=C/c1cc([N+](=O)[O-])ccc1O)C1C2CCCCC21 (stereo not given)
EC50 [1]: > 150 µM (inactive)
EC50 [2]: 2.35 µM (active)

OC(CSc1ccccc1Cl)CN1CCN(c2ccc(F)cc2)CC1 (stereo not given)
EC50 [8]: > 120 µM (not active)
EC50 [9]: > 120 µM (not active)
EC50 [10]: > 120 µM (not active)

O=C(O)CCCCCN1C(=O)/C(=C\c2ccncc2)SC1=S
EC50 [1]: 6.7 µM (inconclusive)
EC50 [2]: 1.45 µM (active)
IC50 (cells): 23.6 µM (active)
